From US11878975B2, “Substituted indole compounds useful as TLR inhibitors” (BRISTOL-MYERS SQUIBB COMPANY, priority 2017, dated 2024)

Columns and labels:
Format in all cases: cell-based
human TLR7 = biological target: T1, human TLR7 (Homo sapiens, UniProt Q9NYK1); experiment: TLR7 inhibition reporter assay (HEK-Blue cells, SEAP reporter, gardiquimod stimulation); conditions: HEK-Blue cells overexpressing human TLR7, SEAP reporter, gardiquimod 7.5 μM
T1 construct: host or cells: HEK-Blue cells
T1 sequence (Q9NYK1 27-1049): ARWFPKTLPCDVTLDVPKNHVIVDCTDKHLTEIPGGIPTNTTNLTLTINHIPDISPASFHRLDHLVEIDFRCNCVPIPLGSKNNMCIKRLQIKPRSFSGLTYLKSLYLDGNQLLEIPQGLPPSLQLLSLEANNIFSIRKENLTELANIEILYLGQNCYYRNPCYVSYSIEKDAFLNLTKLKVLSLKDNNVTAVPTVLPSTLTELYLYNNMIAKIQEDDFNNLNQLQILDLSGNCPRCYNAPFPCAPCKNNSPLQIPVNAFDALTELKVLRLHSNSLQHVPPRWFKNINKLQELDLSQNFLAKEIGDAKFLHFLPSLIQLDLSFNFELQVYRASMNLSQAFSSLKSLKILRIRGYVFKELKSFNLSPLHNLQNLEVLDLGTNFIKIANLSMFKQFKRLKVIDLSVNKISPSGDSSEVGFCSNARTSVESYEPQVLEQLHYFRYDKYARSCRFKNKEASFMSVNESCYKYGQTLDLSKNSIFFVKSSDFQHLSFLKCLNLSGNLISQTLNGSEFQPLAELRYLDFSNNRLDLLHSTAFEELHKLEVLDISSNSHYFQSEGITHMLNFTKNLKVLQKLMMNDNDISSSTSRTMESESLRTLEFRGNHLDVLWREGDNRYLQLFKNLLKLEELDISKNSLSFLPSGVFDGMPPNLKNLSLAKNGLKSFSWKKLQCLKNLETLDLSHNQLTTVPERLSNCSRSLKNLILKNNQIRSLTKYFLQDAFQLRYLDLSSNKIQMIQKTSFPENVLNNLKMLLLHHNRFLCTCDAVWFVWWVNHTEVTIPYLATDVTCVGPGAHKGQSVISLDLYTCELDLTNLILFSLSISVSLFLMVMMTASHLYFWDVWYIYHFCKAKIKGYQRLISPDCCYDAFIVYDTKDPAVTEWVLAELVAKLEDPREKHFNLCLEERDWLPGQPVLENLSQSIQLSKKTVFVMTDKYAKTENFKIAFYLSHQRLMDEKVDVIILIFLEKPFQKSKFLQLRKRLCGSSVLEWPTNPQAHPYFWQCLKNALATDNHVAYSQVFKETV
Method in brief: (§1)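 Dose range 0.05 nM–50 μM; 30 min preincubation, RT. Agonists: TLR7 gardiquimod 7.5 μM, TLR8 R848 15.9 μM, TLR9 ODN2006 5 nM. 22 h, 37 °C, 5% CO2. SEAP (IFN-β minimal promoter with NF-κB/AP-1 sites) via colorimetric detection medium; % inhibition vs agonist+DMSO and reference-inhibitor wells.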

human TLR8 = biological target: T2, human TLR8 (Homo sapiens, UniProt Q9NR97); experiment: TLR8 inhibition reporter assay (HEK-Blue cells, SEAP reporter, R848 stimulation); conditions: HEK-Blue cells overexpressing human TLR8, SEAP reporter, R848 15.9 μM
T2 construct: host or cells: HEK-Blue cells
T2 sequence (Q9NR97 27-1041): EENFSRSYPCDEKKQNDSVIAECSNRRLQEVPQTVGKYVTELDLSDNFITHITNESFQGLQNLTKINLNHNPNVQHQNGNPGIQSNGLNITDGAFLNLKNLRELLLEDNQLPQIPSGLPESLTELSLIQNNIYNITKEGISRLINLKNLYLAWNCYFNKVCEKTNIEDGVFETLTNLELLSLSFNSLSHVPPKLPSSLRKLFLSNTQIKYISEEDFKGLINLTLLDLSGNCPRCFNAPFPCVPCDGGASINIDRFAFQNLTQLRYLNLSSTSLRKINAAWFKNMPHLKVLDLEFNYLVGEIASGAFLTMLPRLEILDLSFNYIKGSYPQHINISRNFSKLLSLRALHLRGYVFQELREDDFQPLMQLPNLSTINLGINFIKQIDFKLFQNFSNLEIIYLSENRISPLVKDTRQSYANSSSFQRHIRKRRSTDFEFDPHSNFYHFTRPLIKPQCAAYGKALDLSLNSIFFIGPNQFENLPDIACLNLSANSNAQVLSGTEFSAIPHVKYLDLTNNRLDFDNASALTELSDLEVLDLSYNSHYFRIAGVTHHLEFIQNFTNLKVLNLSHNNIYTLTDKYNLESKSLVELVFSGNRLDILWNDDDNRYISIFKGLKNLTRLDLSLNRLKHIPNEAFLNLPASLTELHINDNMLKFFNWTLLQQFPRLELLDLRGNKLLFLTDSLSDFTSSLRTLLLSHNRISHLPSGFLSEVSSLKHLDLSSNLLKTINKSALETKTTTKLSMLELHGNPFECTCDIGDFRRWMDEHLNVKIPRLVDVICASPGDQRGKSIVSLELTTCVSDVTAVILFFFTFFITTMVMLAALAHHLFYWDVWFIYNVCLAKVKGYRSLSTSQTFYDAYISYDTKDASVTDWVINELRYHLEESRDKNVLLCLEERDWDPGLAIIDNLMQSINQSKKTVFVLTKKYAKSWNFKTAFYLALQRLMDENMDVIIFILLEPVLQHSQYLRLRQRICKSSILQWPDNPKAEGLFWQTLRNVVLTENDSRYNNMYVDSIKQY
Method in brief: as §1

human TLR9 = biological target: T3, human TLR9 (Homo sapiens, UniProt Q9NR96); experiment: TLR9 inhibition reporter assay (HEK-Blue cells, SEAP reporter, ODN2006 stimulation); conditions: HEK-Blue cells overexpressing human TLR9, SEAP reporter, ODN2006 5 nM
T3 construct: host or cells: HEK-Blue cells
T3 sequence (Q9NR96 26-1032): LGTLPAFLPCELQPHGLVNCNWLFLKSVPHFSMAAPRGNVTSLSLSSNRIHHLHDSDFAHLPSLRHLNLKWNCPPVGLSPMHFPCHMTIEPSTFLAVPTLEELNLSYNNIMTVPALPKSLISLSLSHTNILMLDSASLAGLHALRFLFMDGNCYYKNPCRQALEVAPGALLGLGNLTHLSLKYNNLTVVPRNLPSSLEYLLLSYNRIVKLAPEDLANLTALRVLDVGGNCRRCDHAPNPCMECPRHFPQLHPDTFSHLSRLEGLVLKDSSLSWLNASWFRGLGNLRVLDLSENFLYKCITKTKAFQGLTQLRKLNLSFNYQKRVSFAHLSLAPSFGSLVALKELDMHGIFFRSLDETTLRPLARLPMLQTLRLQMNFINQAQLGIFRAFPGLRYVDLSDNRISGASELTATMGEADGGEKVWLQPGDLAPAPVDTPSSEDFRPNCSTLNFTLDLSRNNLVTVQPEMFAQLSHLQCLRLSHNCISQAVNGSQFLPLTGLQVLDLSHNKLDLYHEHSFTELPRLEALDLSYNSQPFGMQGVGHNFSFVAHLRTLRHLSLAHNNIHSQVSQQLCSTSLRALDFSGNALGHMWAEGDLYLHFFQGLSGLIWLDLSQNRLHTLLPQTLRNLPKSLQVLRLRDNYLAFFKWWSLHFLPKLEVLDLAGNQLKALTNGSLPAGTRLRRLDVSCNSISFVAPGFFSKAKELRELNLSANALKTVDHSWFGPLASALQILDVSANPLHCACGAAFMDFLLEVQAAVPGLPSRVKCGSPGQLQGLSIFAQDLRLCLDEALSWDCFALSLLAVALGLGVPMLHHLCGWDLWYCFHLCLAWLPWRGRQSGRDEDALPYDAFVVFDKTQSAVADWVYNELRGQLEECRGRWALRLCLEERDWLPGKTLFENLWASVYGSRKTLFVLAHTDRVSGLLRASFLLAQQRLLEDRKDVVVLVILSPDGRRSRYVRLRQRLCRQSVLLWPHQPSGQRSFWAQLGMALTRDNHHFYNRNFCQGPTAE
Method in brief: as §1

Structure (SMILES)	IC50 (human TLR7) [nM]	IC50 (human TLR8) [nM]	IC50 (human TLR9) [nM]
Cc1c(-c2[nH]c3ccc(C4CN(CCS(C)(=O)=O)C4)cc3c2C(C)C)cn(C)c(=O)c1C [Example 483]	61	8.8	22700
Cc1c(-c2[nH]c3ccc(C4CN(C(=O)CN(C)C)C4)cc3c2C(C)C)cn(C)c(=O)c1C [Example 484]	41	9.5	16500
Cc1c(-c2[nH]c3ccc(C4CN(C5COC5)C4)cc3c2C(C)C)cn(C)c(=O)c1C [Example 485]	46	27	48000
COCCN1CC(c2ccc3[nH]c(-c4cn(C)c(=O)c(C)c4C)c(C(C)C)c3c2)C1 [Example 487]	45	5.8	10500
CCCN1CC(c2ccc3[nH]c(-c4cn(C)c(=O)c(C)c4C)c(C(C)C)c3c2)C1 [Example 488]	22	6	4240
Cc1c(-c2[nH]c3ccc(C4CN(CC(=O)N(C)C)C4)cc3c2C(C)C)cn(C)c(=O)c1C [Example 489]	128	20	14900
Cc1c(-c2[nH]c3ccc(C4CC(NCCS(C)(=O)=O)C4)cc3c2C(C)C)cn(C)c(=O)c1C (stereo not drawn) [Example 495]	38	1.3	20700
Cc1c(-c2[nH]c3ccc(C4CC(NC5COC5)C4)cc3c2C(C)C)cn(C)c(=O)c1C (stereo not drawn) [Example 496]	57	4.3	> 50000
Cc1c(-c2[nH]c3ccc(C4CN(CC5CCOC5)C4)cc3c2C(C)C)cn(C)c(=O)c1Cl (stereo not drawn) [Example 499]	43	25	9970
CC(C)c1c(-c2ccnc3[nH]ncc23)[nH]c2ccc(C3CCC(OC4CCNCC4)CC3)cc12 (stereo not drawn) [Example 502]	71	23	313
Cc1cc(-c2[nH]c3ccc(C4CCC(OC5CCNCC5)CC4)cc3c2C(C)C)ccn1 (stereo not drawn) [Example 503]	28	44	2860
CC(C)c1c(-c2ccnc3[nH]ncc23)[nH]c2ccc(C3CCC(Oc4ccncc4)CC3)cc12 (stereo not drawn) [Example 504]	98	162	5010
CC(C)c1c(-c2ccnc3[nH]ncc23)[nH]c2ccc(C3CCC(Oc4ccncc4)CC3)cc12 (stereo not drawn) [Example 505]	347	774	13900

Now those with a lower IC50 (human TLR7), led by results:

IC50 (human TLR7) [nM]	IC50 (human TLR8) [nM]	IC50 (human TLR9) [nM]	Structure (SMILES)
16	4.6	4200	Cc1c(-c2[nH]c3ccc(C4CC(N)C4)cc3c2C(C)C)cn(C)c(=O)c1C (stereo not drawn) [Example 493]
16	13	5370	CCCN1CC(c2ccc3[nH]c(-c4cn(C)c(=O)c(Cl)c4C)c(C(C)C)c3c2)C1 [Example 500]
12	4.3	739	CC(C)c1c(-c2ccnc3[nH]ncc23)[nH]c2ccc(C3CCCNCC3)cc12 (stereo not drawn) [Example 501]
5	0.48	12000	Cc1c(-c2[nH]c3ccc(C4CC(NCCS(C)(=O)=O)C4)cc3c2C(C)C)cn(C)c(=O)c1C (stereo not drawn) [Example 494]
5	18	531	Cc1cc(-c2[nH]c3ccc(C4CCC(N5CCOCC5)CC4)cc3c2C(C)C)cc(C)n1 (stereo not drawn) [Example 498]
4	1.6	6070	Cc1c(-c2[nH]c3ccc(C4CC(N)C4)cc3c2C(C)C)cn(C)c(=O)c1C (stereo not drawn) [Example 492]
3	14	8180	Cc1c(-c2[nH]c3ccc(C4CC5CN(CC(=O)N(C)C)CC5C4)cc3c2C(C)C)cn2ncnc2c1C (stereo not drawn) [Example 507]
2	1	13500	Cc1c(-c2[nH]c3ccc(C4CC(NC(=O)CN(C)C)C4)cc3c2C(C)C)cn(C)c(=O)c1C (stereo not drawn) [Example 490]
2	12	20700	CNC(=O)CN1CC2CC(c3ccc4[nH]c(-c5cn6ncnc6c(C)c5C)c(C(C)C)c4c3)CC2C1 (stereo not drawn) [Example 510]
1	2.3	649	Cc1cc(-c2[nH]c3ccc(C4CCC(N5CCOCC5)CC4)cc3c2C(C)C)cc(C)n1 (stereo not drawn) [Example 497]
1	21	6590	Cc1c(-c2[nH]c3ccc(C4CC5CNCC5C4)cc3c2C(C)C)cn2ncnc2c1C (stereo not drawn) [Example 506]
0.94	6.1	12300	Cc1c(-c2[nH]c3ccc(C4CC5CN(CC(N)=O)CC5C4)cc3c2C(C)C)cn2ncnc2c1C (stereo not drawn) [Example 511]
0.43	11	1490	COc1cc(-c2[nH]c3ccc(C4CC5CNCC5C4)cc3c2C(C)C)cn2ncnc12 (stereo not drawn) [Example 508]
0.27	2.4	2340	COc1cc(-c2[nH]c3ccc(C4CC5CN(CC(=O)N(C)C)CC5C4)cc3c2C(C)C)cn2ncnc12 (stereo not drawn) [Example 509]
